Data from ChEMBL document CHEMBL3286379, “Design and synthesis of pyrimidine molecules endowed with thiazolidin-4-one as new anticancer agents” (Eur J Med Chem, 2014).

Key:
Type in all cases: functional
[1] = Growth inhibition of human SF295 cells assessed as cell growth at 10 uM after 48 hrs by sulforhodamine B assay relative to control; conditions: SF-295, 48 h, read-out: Activity
[2] = system: SK-OV-3; assay: Growth inhibition of human SKOV3 cells assessed as cell growth at 10 uM after 48 hrs by sulforhodamine B assay relative to control; conditions: SK-OV-3, 48 h, read-out: Activity
[3] = Growth inhibition of human BT549 cells assessed as cell growth at 10 uM after 48 hrs by sulforhodamine B assay relative to control; conditions: BT-549, 48 h, read-out: Activity
[4] = Growth inhibition of human OVCAR5 cells assessed as cell growth at 10 uM after 48 hrs by sulforhodamine B assay relative to control; conditions: OVCAR-5, 48 h, read-out: Activity
[5] = system: MDA-MB-435; assay: Growth inhibition of human MDA-MB-435 cells assessed as cell growth at 10 uM after 48 hrs by sulforhodamine B assay relative to control; conditions: MDA-MB-435, 48 h, read-out: Activity
[6] = system: DU-145; assay: Growth inhibition of human DU145 cells assessed as cell growth at 10 uM after 48 hrs by sulforhodamine B assay relative to control; conditions: DU-145, 48 h, read-out: Activity
[7] = system: K562; assay: Growth inhibition of human K562 cells assessed as cell growth at 10 uM after 48 hrs by sulforhodamine B assay relative to control; conditions: K562, 48 h, read-out: Activity
[8] = system: Malme-3M; assay: Growth inhibition of human MALME-3M cells assessed as cell growth at 10 uM after 48 hrs by sulforhodamine B assay relative to control; conditions: read-out: Activity
[9] = system: MCF7; assay: Growth inhibition of human MCF7 cells assessed as cell growth at 10 uM after 48 hrs by sulforhodamine B assay relative to control; conditions: MCF7, 48 h, read-out: Activity
[10] = system: A549; assay: Growth inhibition of human A549/ATCC cells assessed as cell growth at 10 uM after 48 hrs by sulforhodamine B assay relative to control; conditions: A549, 48 h, read-out: Activity
[11] = system: HT-29; assay: Growth inhibition of human HT-29 cells assessed as cell growth at 10 uM after 48 hrs by sulforhodamine B assay relative to control; conditions: HT-29, 48 h, read-out: Activity
[12] = system: SR; assay: Growth inhibition of human SR cells assessed as cell growth at 10 uM after 48 hrs by sulforhodamine B assay relative to control; conditions: read-out: Activity
[13] = Growth inhibition of human LOXIMVI cells assessed as cell growth at 10 uM after 48 hrs by sulforhodamine B assay relative to control; conditions: LOX IMVI, read-out: Activity
[14] = system: NCI-H226; assay: Growth inhibition of human NCI-H226 cells assessed as cell growth at 10 uM after 48 hrs by sulforhodamine B assay relative to control; conditions: NCI-H226, 48 h, read-out: Activity
[15] = system: CAKI-1; assay: Growth inhibition of human CAKI-1 cells assessed as cell growth at 10 uM after 48 hrs by sulforhodamine B assay relative to control; conditions: CAKI-1, 48 h, read-out: Activity
[16] = system: SN12C; assay: Growth inhibition of human SN12C cells assessed as cell growth at 10 uM after 48 hrs by sulforhodamine B assay relative to control; conditions: read-out: Activity
[17] = Growth inhibition of human OVCAR3 cells assessed as cell growth at 10 uM after 48 hrs by sulforhodamine B assay relative to control; conditions: OVCAR-3, 48 h, read-out: Activity
[18] = system: ACHN; assay: Growth inhibition of human ACHN cells assessed as cell growth at 10 uM after 48 hrs by sulforhodamine B assay relative to control; conditions: read-out: Activity
[19] = system: M14; assay: Growth inhibition of human M14 cells assessed as cell growth at 10 uM after 48 hrs by sulforhodamine B assay relative to control; conditions: M14, 48 h, read-out: Activity
[20] = system: SNB-75; assay: Growth inhibition of human SNB75 cells assessed as cell growth at 10 uM after 48 hrs by sulforhodamine B assay relative to control; conditions: SNB-75, 48 h, read-out: Activity
[21] = system: HL-60(TB); assay: Growth inhibition of human HL-60(TB) cells assessed as cell growth at 10 uM after 48 hrs by sulforhodamine B assay relative to control; conditions: HL-60, 48 h, read-out: Activity
[22] = system: NCI-H522; assay: Growth inhibition of human NCI-H522 cells assessed as cell growth at 10 uM after 48 hrs by sulforhodamine B assay relative to control; conditions: NCI-H522, 48 h, read-out: Activity
[23] = Growth inhibition of human RXF393 cells assessed as cell growth at 10 uM after 48 hrs by sulforhodamine B assay relative to control; conditions: RXF 393, 48 h, read-out: Activity
[24] = system: SW-620; assay: Growth inhibition of human SW620 cells assessed as cell growth at 10 uM after 48 hrs by sulforhodamine B assay relative to control; conditions: SW-620, 48 h, read-out: Activity
[25] = system: CCRF-CEM; assay: Growth inhibition of human CCRF-CEM cells assessed as cell growth at 10 uM after 48 hrs by sulforhodamine B assay relative to control; conditions: read-out: Activity
[26] = system: NCI-H322M; assay: Growth inhibition of human NCI-H322M cells assessed as cell growth at 10 uM after 48 hrs by sulforhodamine B assay relative to control; conditions: read-out: Activity
[27] = system: SNB-19; assay: Growth inhibition of human SNB19 cells assessed as cell growth at 10 uM after 48 hrs by sulforhodamine B assay relative to control; conditions: SNB-19, 48 h, read-out: Activity
[28] = Growth inhibition of human SF539 cells assessed as cell growth at 10 uM after 48 hrs by sulforhodamine B assay relative to control; conditions: SF-539, 48 h, read-out: Activity
[29] = system: SK-MEL-5; assay: Growth inhibition of human SK-MEL-5 cells assessed as cell growth at 10 uM after 48 hrs by sulforhodamine B assay relative to control; conditions: SK-MEL-5, 48 h, read-out: Activity
[30] = Growth inhibition of human Hs 578T cells assessed as cell growth at 10 uM after 48 hrs by sulforhodamine B assay relative to control; conditions: read-out: Activity
[31] = Growth inhibition of human MOLT4 cells assessed as cell growth at 10 uM after 48 hrs by sulforhodamine B assay relative to control; conditions: MOLT-4, 48 h, read-out: Activity
[32] = Growth inhibition of human OVCAR4 cells assessed as cell growth at 10 uM after 48 hrs by sulforhodamine B assay relative to control; conditions: OVCAR-4, 48 h, read-out: Activity
[33] = Growth inhibition of human HCT15 cells assessed as cell growth at 10 uM after 48 hrs by sulforhodamine B assay relative to control; conditions: HCT-15, 48 h, read-out: Activity
[34] = Growth inhibition of human UACC257 cells assessed as cell growth at 10 uM after 48 hrs by sulforhodamine B assay relative to control; conditions: UACC-257, 48 h, read-out: Activity
[35] = system: SF-268; assay: Growth inhibition of human SF268 cells assessed as cell growth at 10 uM after 48 hrs by sulforhodamine B assay relative to control; conditions: SF-268, 48 h, read-out: Activity

Row | Compound | growth at 10 µM [1] | growth at 10 µM [2] | growth at 10 µM [3] | growth at 10 µM [4] | growth at 10 µM [5] | growth at 10 µM [6] | growth at 10 µM [7] | growth at 10 µM [8] | growth at 10 µM [9] | growth at 10 µM [10] | growth at 10 µM [11] | growth at 10 µM [12] | growth at 10 µM [13] | growth at 10 µM [14] | growth at 10 µM [15] | growth at 10 µM [16] | growth at 10 µM [17] | growth at 10 µM [18] | growth at 10 µM [19] | growth at 10 µM [20] | also measured
1 | Nc1nc(-c2ccccc2Cl)cc(-c2ccc(Cl)cc2Cl)n1 | 38.7% | 93% | 75.3% | 96.2% | 0.07% | 91.4% | 27.3% | 86.6% | 45.7% | 52.7% | 36.6% | 25.4% | 55.4% | 87.7% | 68% | 79.6% | 85.2% | 86% | 53.5% | 30.5% | growth at 10 µM [21]: 51.4%; growth at 10 µM [22]: 68.5%; growth at 10 µM [23]: 75.8%; growth at 10 µM [24]: 39%; growth at 10 µM [25]: 57.5%; growth at 10 µM [26]: 89.5%; growth at 10 µM [27]: 78.2%; growth at 10 µM [28]: 72.2%; growth at 10 µM [29]: 75.2%; growth at 10 µM [30]: 61.9%; growth at 10 µM [31]: 52.6%; growth at 10 µM [32]: 79.6%; growth at 10 µM [33]: 90.2%; growth at 10 µM [34]: 93%; growth at 10 µM [35]: 65.9%
2 | O=C1CS/C(=N\c2nc(-c3ccccc3Cl)cc(-c3ccc(Cl)cc3Cl)n2)N1 | 116% | 95.4% | 98.4% | 108% | 78.5% | 105% | 79.5% | 87.3% | 87.2% | 91.2% | 107% | 75.1% | 90.4% | 104% | 88.6% | 98.5% | 101% | 98.1% | 94% | 76.6% | growth at 10 µM [21]: 96.1%; growth at 10 µM [22]: 88.6%; growth at 10 µM [23]: 111%; growth at 10 µM [24]: 92.9%; growth at 10 µM [25]: 85.9%; growth at 10 µM [26]: 94.9%; growth at 10 µM [27]: 101%; growth at 10 µM [28]: 103%; growth at 10 µM [29]: 103%; growth at 10 µM [30]: 97.7%; growth at 10 µM [31]: 92%; growth at 10 µM [32]: 96.1%; growth at 10 µM [33]: 102%; growth at 10 µM [34]: 107%; growth at 10 µM [35]: 92.2%
3 | O=C1N/C(=N/c2nc(-c3ccccc3Cl)cc(-c3ccc(Cl)cc3Cl)n2)S/C1=C/c1ccc(Cl)cc1 | 48.6% | 99.2% | 92.2% | 102% | 32.1% | 100% | 37.6% | 91.5% | 50.4% | 88.8% | 103% | 32.4% | 74.1% | 98.5% | 97.2% | 91.5% | 89.2% | 91.6% | 102% | 97.5% | growth at 10 µM [21]: 87.1%; growth at 10 µM [22]: 82.3%; growth at 10 µM [23]: 100%; growth at 10 µM [24]: 76.6%; growth at 10 µM [25]: 75.5%; growth at 10 µM [26]: 78.1%; growth at 10 µM [27]: 93.4%; growth at 10 µM [28]: 97.3%; growth at 10 µM [29]: 83.6%; growth at 10 µM [30]: 91.9%; growth at 10 µM [31]: 94.2%; growth at 10 µM [32]: 81.9%; growth at 10 µM [33]: 90%; growth at 10 µM [34]: 93.2%; growth at 10 µM [35]: 90.9%
